From patent US4096263A, “1,2,3,4-Tetrahydroisoquinolines and the preparation thereof” (Fujisawa Pharmaceutical Co., Ltd., priority 1975, dated 1978) come the findings set out here.

This experiment deals with jejunum of the dog. As to the kind of experiment: Intestinal Motility in Dogs (balloon at the jejunum, inhibition of motility in anesthetized mongrel dogs). It is filed as in vivo. The method, then:
Intestinal Motility in Dogs Method: Mongrel dogs weighing 8 to 16 kg which were withheld from any food and water for 24 hours were anesthetized with a combination of urethane (1.5 g/kg) and morphine (15 mg/kg). A balloon was placed at the jejunum of the dog, compressed at a pressure of 10 cm. H2 O, and connected to a strain gauge. Changes in the motility were mainly recorded in terms of amplitude, but taking account of the number of movements. The maximum change of all the determinations, served as the calculation of the 50% inhibition dose (ED50). The time required for 80% recovery was considered as a duration of action.

Where a name gives a salt, the structure may show the parent alone.

For `Cn1nnnc1NCC1NCCc2cc(O)c(O)cc21` (centres unmarked) [Test Compound, 1-(1-Methyl-1H-tetrazol-5-yl)aminomethyl-6,7-dihydroxy-1,2,3,4-tetrahydroisoquinoline hydrochloride trihemihydrate], the ED50 (Canis lupus familiaris, anesthetized mongrel dogs (urethane 1.5 g/kg and morphine 15 mg/kg), jejunal balloon at 10 cm. H2O, maximum change of motility, mainly amplitude, route not stated, read-out: ED50 (50% inhibition dose)) is 1 µg/kg. Besides, the “Duration of Action” value (time required for 80% recovery, anesthetized mongrel dogs, jejunal balloon, dose and route not stated) worked out at 25 min.
